Columns and labels:
[1] = Cytotoxicity against NS1 cell line up to 15 uM; format: cell-based; details: mouse
[2] = Cytotoxicity against NS1 cell line; format: cell-based; details: mouse

COc1cc(/C(C)=C/C=C/C=C/C=C/c2ccc[nH]2)oc(=O)c1C
Activity [1]: Not Active

COc1cc(/C(C)=C/C=C/C=C/C=C/c2[nH]ccc2Br)oc(=O)c1C
LD99 [2]: 1.9 µM

COc1cc(/C(C)=C/C=C/C=C/C=C/c2[nH]ccc2Cl)oc(=O)c1C
LD99 [2]: 0.034 µM

Reference: ChEMBL document CHEMBL1142107, “The effect of halide salts on the production of Gymnoascus reessii polyenylpyrroles” (J Nat Prod, 2007)
